# Source: US20080175813A1, “NOVEL ATTRACTANTS FOR VESPID WASPS” (PHEROTECH INTERNATIONAL INC., priority 2007, published 2008)
# What was measured:
# Assay type in all cases: in vivo
# [1] = tested on: Vespula pennsylvanica; test: Experiment 3: field trapping, wet vs dry apple pomace as supplements for heptyl butyrate; details: Experiment 3, N = 12, 21-22 Sep. 2006, 12 g apple pomace in mesh bag, suspended dry or immersed in capture water
# Experimental: The experiment ran from 21-22 Sep. 2006, at the same location as the first two experiments. All other experimental conditions were the same as above. Twelve replicates of three treatments were tested: 1) heptyl butyrate alone, 2) heptyl butyrate plus a mesh bag containing 12 g of apple pomace suspended dry from the trap lid along with the heptyl butyrate lure, and 3) heptyl butyrate plus 12 g of apple pomace in a mesh bag immersed in the water-detergent capture medium in the bottom of the interior chamber.
# [2] = tested on: Vespula pennsylvanica; test: Experiment 4: field trapping, apple pomace vs apple juice as supplements for heptyl butyrate; details: Experiment 4, N = 12, set up 29 Sep. 2006, collections Sept 30, Oct 2, Oct 4; 5 g apple pomace; apple juice replacing capture water
# Source text: A final 12-replicate experiment was set up as above, and compared wet apple pomace with apple juice. The three treatments were: 1) heptyl butyrate alone, 2) heptyl butyrate plus apple juice, and 3) heptyl butyrate plus apple pomace. In the second treatment, apple juice (Sun-Rype Products Ltd., Kelowna, B.C.) with 2-3 drops of detergent added replaced the water-detergent capture medium in the bottom of the interior trap chamber. In the third treatment, the amount of apple pomace in the plastic mesh bag immersed in the water-detergent capture medium in the bottom of the interior chamber was reduced to 5 g, which is a realistic operational dose. The experiment was set up on 29 Sep. 2006, and captured wasps were removed from the traps and counted on September 30, October 2 and October 4.
# [3] = tested on: Vespula pennsylvanica; test: Experiment 1: field trapping in Oak Stump traps, chopped dried apples as supplement for heptyl butyrate; details: Experiment 1, N = 12, Oak Stump traps, 8-11 Sep. 2006, 12 g chopped dried apples in capture water
# Experimental: The experiment was run for 3 days in Tilbury Industrial Park in Delta, B.C. from 8-11 Sep. 2006. Large 2 L Oak Stump traps, with a single transverse entry tube, and 300-350 mL of water with 2-3 drops of liquid detergent added in the bottom of the interior chamber, were hung at eye level from trees or woody bushes. Traps for each of three treatments were deployed in 12 randomized complete blocks, with ≧5 m between traps. […] Almost all captured wasps were western yellowjackets, Vespula pennsylvanica. The very few Polistes spp. captured (no more than two per trap, with most traps having none) were not counted.
# [4] = tested on: Vespula pennsylvanica; test: Experiment 2: field trapping, apple pomace vs chopped dried apples as supplements for heptyl butyrate; details: Experiment 2, N = 15, 15-18 Sep. 2006, 12 g supplement in plastic mesh in capture water
# Experimental: The experiment was run for 3 days in Tilbury Industrial Park in Delta, B.C. from 8-11 Sep. 2006. Large 2 L Oak Stump traps, with a single transverse entry tube, and 300-350 mL of water with 2-3 drops of liquid detergent added in the bottom of the interior chamber, were hung at eye level from trees or woody bushes. Traps for each of three treatments were deployed in 12 randomized complete blocks, with ≧5 m between traps. […] Experiment 2, with 15 replicates, was run at the same location as Experiment 1 from 15-18 Sep. 2006. […] The apple pomace was obtained from Agrisource Food Products Inc., Richmond, B.C.
smiles,measurement,setting,value
"CCCCCCCOC(=O)CCC [Heptyl butyrate alone, heptyl butyrate]",MEAN NUMBER OF WASPS CAPTURED ± SE,[1],9.8 ± 2.0 ab
same,MEAN NUMBER OF WASPS CAPTURED ± SE,[2],24.3 ± 6.7 a
same,MEAN NUMBER OF WASPS CAPTURED ± SE,[3],72.8 ± 13.9 b
same,MEAN NUMBER OF WASPS CAPTURED ± SE,[3]; listed as heptyl butyrate,73
same,MEAN NUMBER OF WASPS CAPTURED ± SE,[4],15.7 ± 3.4 ab
